{"source": "patent US8377640B2", "about": "“Diagnostic screens for Alzheimer's disease” (ISIS Innovation Ltd., priority 2001, dated 2013)", "key": {"cultured lymphocytes [1]": {"system": "cultured lymphocytes", "test": "Relative lengthening of the G1 phase (BrdU incorporation, FACS) in PHA-activated lymphocyte cultures treated with rapamycin", "format": "cell-based, human", "details": "100 ng/ml rapamycin; for dG1: relative lengthening of the G1 phase of the cell cycle under Rapamycin effect: 24 h; for Mean (dG1): group mean", "description": "A first set of experiments was carried out on 49 subjects (Table 1A), whilst a second set of experiments was carried out on 55 subjects (Table 1B). In the first set of experiments (49 subjects) two parallel lymphocyte cultures were set up from every individual in RPMI medium supplemented with 10% FCS at a concentration of 1×10^6 cells per 1 ml of culture media. Phytohaemaglutinin (PHA) was added to the cultures at a final concentration of 22 μg/ml to activate the lymphocytes. Cultures were incubated for 48 hours at 37° C. in a humidified atmosphere containing 5% CO2. After 48 hours incubation one culture was treated with 100 ng/ml rapamycin, while the other untreated culture was kept as a control. After a further 23 hours incubation BrdU was added in a concentration of 10 μg/ml to all cultures. After another hour cultures were ‘collected’ and fixed in 70% ice-cold ethanol. BrdU incorporation was assessed using immunohistochemistry followed by FACS analysis. The proportion of cells in various phases of the cell cycle was determined and data transformation performed to obtain the relative lengthening of the G1 phase (FIG. 1).\nThe calculations (relative lengthening of the G1 phase of the cell cycle in treated cultures relative to control cultures) were based on the assumptions that cells were in the exponential phase of proliferation and that the growth fraction in the cultures (ratio of dividing cells versus quiescent cells) was 1.0 (5). It was also assumed that rapamycin only altered the length of the G1 phase (19). Based on these assumptions the relative lengthening of the G1 phase was calculated using the formula: RL=100f-100 (expressed in percent). The ratio of the G1 time in treated versus control cultures: f=TG1tr/TG1c=[1n2−1n(2−G1tr)][1n(2−G1c)]/[1n(2−G1tr)][1n2−1n(2−G1c)] (5)"}, "cultured lymphocytes [2]": {"system": "cultured lymphocytes", "test": "MTT survival assay of PHA-activated lymphocyte cultures, treated versus control", "format": "cell-based, human", "description": "In the second set of experiments (53 subjects) after an initial 48 hours incubation (as above) four separate cultures were set up. Control cultures were left without any treatment, one set of cultures was treated with 100 ng/ml rapamycin, the third set was treated with 1 μM doxorubicin while the fourth set was treated with 120 μM H2O2. Doxorubicin induces DNA damage, leading to arrest at G2/M, rather than G1/S. H2O2 treatment produces oxidative stress, leading to a reversible and temporary cell cycle arrest at G1/S.\nAfter 20 hours of incubation a 4 hour long MTT survival assay (Chemicon International Ltd) was set up. Results were read using a microplate reader (570 filter; 630 reference filter). The ratio between cell numbers in treated cultures versus controls was expressed as percent."}}, "note": "Values joined by “and” are separate entries in the source; they are usually repeats but may differ in a detail not shown here. Equal entries are not always repeated.", "data": [{"smiles": "CO[C@H]1C[C@@H]2CC[C@@H](C)[C@@](O)(O2)C(=O)C(=O)N2CCCC[C@H]2C(=O)O[C@H]([C@H](C)C[C@@H]2CC[C@@H](O)[C@H](OC)C2)CC(=O)[C@H](C)/C=C(\\C)[C@@H](O)[C@@H](OC)C(=O)[C@H](C)C[C@H](C)/C=C/C=C/C=C/1C", "note": "[rapamycin]", "values": [{"measurement": "dG1: relative lengthening of the G1 phase of the cell cycle under Rapamycin effect", "setting": "cultured lymphocytes [1]; lymphocytes of individual patients, diagnosis AD (probable AD, NINCDS)", "result": "44.03% and 97.07% and 82.67% and 62.12% and 73.01% and 47.91% and 53.63% and 0% and 27%"}, {"measurement": "dG1: relative lengthening of the G1 phase of the cell cycle under Rapamycin effect", "setting": "cultured lymphocytes [1]; lymphocytes of individual patients, diagnosis ADM", "result": "64.28% and 39.2% and 95.23% and 46.31% and 59.49% and 51.81% and 51.62%"}, {"measurement": "dG1: relative lengthening of the G1 phase of the cell cycle under Rapamycin effect", "setting": "cultured lymphocytes [1]; lymphocytes of individual patients, diagnosis DNOS", "result": "31.64% and 69.07% and 97.27%"}, {"measurement": "dG1: relative lengthening of the G1 phase of the cell cycle under Rapamycin effect", "setting": "cultured lymphocytes [1]; lymphocytes of individual patients, diagnosis possAD", "result": "56.77% and 60.1% and 98.1%"}, {"measurement": "dG1: relative lengthening of the G1 phase of the cell cycle under Rapamycin effect", "setting": "cultured lymphocytes [1]; lymphocytes of individual subjects, diagnosis Control", "result": "51.69% and 64.1% and 40.07% and 114.1% and 119.8% and 50.04% and 177.8% and 62.81% and 54.56% and 162.7% and 97.33% and 46.02% and 110.8% and 140.6%"}, {"measurement": "dG1: relative lengthening of the G1 phase of the cell cycle under Rapamycin effect", "setting": "cultured lymphocytes [1]; lymphocytes of individual subjects, diagnosis preAD", "result": "0% (3×) and 26.1% and 36.18% and 54.46% and 39.2% and 72.58% and 44.49% and 31.37% and 25.47% and 35.02% and 42.1%"}, {"measurement": "Mean (dG1)", "setting": "cultured lymphocytes [1]; AD, n=9", "result": 54.1602, "unit": "%"}, {"measurement": "Mean (dG1)", "setting": "cultured lymphocytes [1]; ADM, n=7", "result": 58.2765, "unit": "%"}, {"measurement": "Mean (dG1)", "setting": "cultured lymphocytes [1]; CONTROL, n=14", "result": 92.3135, "unit": "%"}, {"measurement": "Mean (dG1)", "setting": "cultured lymphocytes [1]; DNOS, n=3", "result": 65.9933, "unit": "%"}, {"measurement": "Mean (dG1)", "setting": "cultured lymphocytes [1]; POSSAD, n=3", "result": 71.6584, "unit": "%"}, {"measurement": "Mean (dG1)", "setting": "cultured lymphocytes [1]; PREAD, n=13", "result": 31.3039, "unit": "%"}, {"measurement": "Mean dG1 by ApoE4", "setting": "cultured lymphocytes [1]; subjects with 0 ApoE4 alleles, n=28", "result": 61.1186, "unit": "%"}, {"measurement": "Mean dG1 by ApoE4", "setting": "cultured lymphocytes [1]; subjects with 1 ApoE4 allele, n=19", "result": 63.0025, "unit": "%"}, {"measurement": "Mean dG1 by ApoE4", "setting": "cultured lymphocytes [1]; subjects with 2 ApoE4 alleles, n=2", "result": 49.6519, "unit": "%"}]}, {"smiles": "OO", "note": "[H2O2]", "values": [{"measurement": "Cell numbers after treatment (treated versus control cultures)", "setting": "cultured lymphocytes [2]; 120 μM H2O2, 24 h, AD, preAD and possAD patients versus control subjects", "result": "significantly higher cell numbers than control subjects"}]}, {"smiles": "COc1cccc2c1C(=O)c1c(O)c3c(c(O)c1C2=O)C[C@@](O)(C(=O)CO)C[C@@H]3O[C@H]1C[C@H](N)[C@H](O)[C@H](C)O1", "note": "[Doxorubicin, doxorubicin]", "values": [{"measurement": "Cell numbers after treatment (treated versus control cultures)", "setting": "cultured lymphocytes [2]; 1 μM doxorubicin, 24 h, comparison between patient groups", "result": "did not result in significant differences between patient groups"}]}]}
